Test results published in article PMC8972805, “Monomodular Pseudomonas aeruginosa phage JG004 lysozyme (Pae87) contains a bacterial surface-active antimicrobial peptide-like region and a possible substrate-binding subdomain” (Acta Crystallographica. Section D, Structural Biology, 2022).

Target: T1, Pae87 (Pseudomonas phage JG004, UniProt F4YDQ3)
T1 construct: gene PJG4_087; full length, 186 residues, N-terminal 6xHis tag (pET-28a(+), tag kept, up to two tag residues modelled), synthetic gene, expressed in E. coli BL21(DE3); one molecule in asymmetric unit of the complex
Assay: X-ray crystal structure of complex, […] Å
Type: binding
Conditions: fragment from PAO1 peptidoglycan hydrolysed by Pae87; second site about 18 Å from catalytic site (helices 4, 5 and 7); Tris-HCl pH 8.0, PEG MME 5000

T1 sequence (F4YDQ3 entry or part of it): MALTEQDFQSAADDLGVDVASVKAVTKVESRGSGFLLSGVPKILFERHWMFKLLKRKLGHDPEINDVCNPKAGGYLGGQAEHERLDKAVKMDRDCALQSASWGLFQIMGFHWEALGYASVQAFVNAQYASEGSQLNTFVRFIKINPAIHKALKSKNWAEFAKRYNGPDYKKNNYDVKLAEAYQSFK

CC(=O)N[C@H]1[C@H](O[C@H]2[C@H](O[C@H](C)C(=O)N[C@@H](C)C(=O)N[C@H](CCC(=O)O)C(=O)O)[C@@H](NC(C)=O)C(O)O[C@@H]2CO)O[C@H](CO)[C@@H](O)[C@@H]1O (stereo partly shown) [peptidoglycan fragment]
X-ray crystal structure of complex, 1.27 Å: the peptidoglycan fragment (comprised of linked NAG, MurNAc, L-alanine
